Test results: patent publication US10993448B2, “Method for sanitizing fresh produce” (Dole Fresh Vegetables, Inc., priority 2014, dated 2021)
Several values for one entry are separate records, joined by “and”; a condition that tells them apart may be missing. Equal entries are not always repeated. Where two headings read alike, the source gives them in different places.

Assays:
[1] = tested on: background microflora in wash water; assay: Reduction of bacteria from wash water using ozone; format: cell-based
Text: Water containing high levels of background microflora was generated by dipping 200 g of lettuce in 2 L of water for 20 seconds. This lettuce was discarded and another 200 g of lettuce was dipped in the same water for 20 seconds. This was repeated for a total of 10 dips (referred to as Control in Table 34 below). Water with dissolved Ozone was then generated using a ClearWater Tech MSW245 Mobile Ozone Generator (San Luis Obispo, Calif.). The control microflora containing water was then mixed with this ‘Ozonated water’ at various mix levels ranging from 10 to 60% of the ozonated water with the control microflora containing water. First, 10% ozonated water was blended with 90% microflora containing water and after 20 seconds, 100 ml of water was removed into a sterile water sample bottle. This protocol was repeated in triplicate, as well as testing 20%, 30%, 40%, 50%, and 60% blends of ozonated water combined with the microflora containing water. In addition, 200 g of lettuce was added to the ozonated solution for 20 seconds and 100 ml of water was then collected in a sterile water sample bottle. This was also repeated in triplicate. The samples were serially diluted using PB as the diluent and plated on Total Plate Count agar. The plates were incubated for 48 hours at 30° C. for enumeration of the bacteria present following treatment.
The theoretical dilution reduction in Table 34 was calculated based on the number of cells that would be present if they were diluted in water or buffer (i.e. not a solution that would cause cell death or injury).

[2] = tested on: background microbial load (LB load); assay: Log reduction analysis of background bacteria on inoculated Romaine lettuce; format: cell-based; details: after each dip, in log units, No treatment 4.81
Salmonella = assay: Suspension tests, Salmonella; format: cell-based, sv. Typhimurium; set-up: key to Average log reduction: * indicates a sample in which no bacteria grew, so no fold reduction may be calculated; details: for Average log reduction: vs water control
Listeria monocytogenes [3] = format: cell-based
Listeria monocytogenes [4] = assay: Suspension tests, Listeria; format: cell-based; set-up: key to Average log reduction: * indicates a sample in which no bacteria grew, so no fold reduction may be calculated; details: for Average log reduction: vs water control
E. coli O157:H7 = assay: Suspension tests, E. coli; format: cell-based; set-up: key to Average log reduction: * indicates a sample in which no bacteria grew, so no fold reduction may be calculated; details: for Average log reduction: vs water control
Non-selective mix = assay: Suspension tests, non-selective agar; format: cell-based, E. coli O157:H7, sv. Typhimurium, and Listeria monocytogenes; set-up: key to Average log reduction: * indicates a sample in which no bacteria grew, so no fold reduction may be calculated; details: for Average log reduction: vs water control
[5] = tested on: microbial load (APC) of chopped Romaine lettuce; format: cell-based
[6] = tested on: microbial load (Total Aerobic Plate Count) of raw, unwashed leafy vegetables; format: cell-based

O=[O+][O-] [ozone solution, ozone]
Avg. CFU/ml ([1]; lettuce 20 sec in ozone solution, initial ozone 2.2 ppm, 20 sec in water 19266): 6900 CFU/ml
Avg. CFU/ml ([1]; ozone solution (initial 1.8 ppm) mixed with microflora containing water, Control after 10 dips in water 300000, listed as 10% ozone solution, After mixing 10% ozone solution): 300000 CFU/ml
Avg. CFU/ml ([1]; ozone solution (initial 1.8 ppm) mixed with microflora containing water, Control after 10 dips in water 300000, listed as 20% ozone solution, After mixing 20% ozone solution): 185333 CFU/ml
Avg. CFU/ml ([1]; ozone solution (initial 1.8 ppm) mixed with microflora containing water, Control after 10 dips in water 300000, listed as 30% ozone solution, After mixing 30% ozone solution): 174667 CFU/ml
Avg. CFU/ml ([1]; ozone solution (initial 1.8 ppm) mixed with microflora containing water, Control after 10 dips in water 300000, listed as 40% ozone solution, After mixing 40% ozone solution): 121667 CFU/ml
Avg. CFU/ml ([1]; ozone solution (initial 1.8 ppm) mixed with microflora containing water, Control after 10 dips in water 300000, listed as 50% ozone solution, After mixing 50% ozone solution): 87667 CFU/ml
Avg. CFU/ml ([1]; ozone solution (initial 1.8 ppm) mixed with microflora containing water, Control after 10 dips in water 300000, listed as 60% ozone solution, After mixing 60% ozone solution): 70333 CFU/ml

[O][Cl+][O-] [ClO2 dip, chlorine dioxide]
Avg. Bacterial Load ([2]; Treatment 1 (ClO2, Cl2, PAA)): 1.56
Avg. Bacterial Load ([2]; Treatment 2 (ClO2, PAA, Cl2)): 2.41
% bacteria killed (Salmonella; 30 seconds at 4° C.): 100%
Average (bacterial load) (Salmonella; 30 seconds at 4° C., Water 5.32 × 10^6): 0.00
Average log reduction (Salmonella; 30 seconds at 4° C.): *
% bacteria killed (Salmonella; 30 seconds at 15° C.): 100%
Average (bacterial load) (Salmonella; 30 seconds at 15° C., Water 2.70 × 10^6): 0.00
Average log reduction (Salmonella; 30 seconds at 15° C.): *
% bacteria killed (Salmonella; 30 seconds at 40° C.): 99.9995%
Average (bacterial load) (Salmonella; 30 seconds at 40° C., Water 4.36 × 10^6): 2.20 × 10^1
Average log reduction (Salmonella; 30 seconds at 40° C.): 5.30
% bacteria killed (Salmonella; 90 seconds at 4° C.): 100%
Average (bacterial load) (Salmonella; 90 seconds at 4° C., Water 1.57 × 10^6): 0.00
Average log reduction (Salmonella; 90 seconds at 4° C.): *
% bacteria killed (Salmonella; 90 seconds at 15° C.): 100%
Average (bacterial load) (Salmonella; 90 seconds at 15° C., Water 4.54 × 10^6): 0.00
Average log reduction (Salmonella; 90 seconds at 15° C.): *
% bacteria killed (Salmonella; 90 seconds at 40° C.): 99.4879%
Average (bacterial load) (Salmonella; 90 seconds at 40° C., Water 7.42 × 10^6): 3.80 × 10^4
Average log reduction (Salmonella; 90 seconds at 40° C.): 2.29
Listeria Load (%) (Listeria monocytogenes [3]): 2.87% and 4.29%
% bacteria killed (Listeria monocytogenes [4]; 30 seconds at 4° C.): 100%
Average (bacterial load) (Listeria monocytogenes [4]; 30 seconds at 4° C., Water 4.96 × 10^5): 0.00
Average log reduction (Listeria monocytogenes [4]; 30 seconds at 4° C.): *
% bacteria killed (Listeria monocytogenes [4]; 30 seconds at 15° C.): 100%
Average (bacterial load) (Listeria monocytogenes [4]; 30 seconds at 15° C., Water 2.24 × 10^6): 0.00
Average log reduction (Listeria monocytogenes [4]; 30 seconds at 15° C.): *
% bacteria killed (Listeria monocytogenes [4]; 30 seconds at 40° C.): 99.9999%
Average (bacterial load) (Listeria monocytogenes [4]; 30 seconds at 40° C., Water 2.32 × 10^6): 2.00 × 10^0
Average log reduction (Listeria monocytogenes [4]; 30 seconds at 40° C.): 6.06
% bacteria killed (Listeria monocytogenes [4]; 90 seconds at 4° C.): 100%
Average (bacterial load) (Listeria monocytogenes [4]; 90 seconds at 4° C., Water 2.06 × 10^5): 0.00
Average log reduction (Listeria monocytogenes [4]; 90 seconds at 4° C.): *
% bacteria killed (Listeria monocytogenes [4]; 90 seconds at 15° C.): 100%
Average (bacterial load) (Listeria monocytogenes [4]; 90 seconds at 15° C., Water 7.14 × 10^4): 0.00
Average log reduction (Listeria monocytogenes [4]; 90 seconds at 15° C.): *
% bacteria killed (Listeria monocytogenes [4]; 90 seconds at 40° C.): 96.080%
Average (bacterial load) (Listeria monocytogenes [4]; 90 seconds at 40° C., Water 2.50 × 10^6): 9.80 × 10^4
Average log reduction (Listeria monocytogenes [4]; 90 seconds at 40° C.): 1.41
% bacteria killed (E. coli O157:H7; 30 seconds at 4° C.): 100%
Average (bacterial load) (E. coli O157:H7; 30 seconds at 4° C., Water 5.72 × 10^6): 0.00
Average log reduction (E. coli O157:H7; 30 seconds at 4° C.): *
% bacteria killed (E. coli O157:H7; 30 seconds at 15° C.): 100%
Average (bacterial load) (E. coli O157:H7; 30 seconds at 15° C., Water 5.96 × 10^6): 0.00
Average log reduction (E. coli O157:H7; 30 seconds at 15° C.): *
% bacteria killed (E. coli O157:H7; 30 seconds at 40° C.): 99.9993%
Average (bacterial load) (E. coli O157:H7; 30 seconds at 40° C., Water 3.22 × 10^6): 2.20 × 10^1
Average log reduction (E. coli O157:H7; 30 seconds at 40° C.): 5.17
% bacteria killed (E. coli O157:H7; 90 seconds at 4° C.): 100%
Average (bacterial load) (E. coli O157:H7; 90 seconds at 4° C., Water 3.96 × 10^6): 0.00
Average log reduction (E. coli O157:H7; 90 seconds at 4° C.): *
% bacteria killed (E. coli O157:H7; 90 seconds at 15° C.): 100%
Average (bacterial load) (E. coli O157:H7; 90 seconds at 15° C., Water 5.74 × 10^6): 0.00
Average log reduction (E. coli O157:H7; 90 seconds at 15° C.): *
% bacteria killed (E. coli O157:H7; 90 seconds at 40° C.): 99.1083%
Average (bacterial load) (E. coli O157:H7; 90 seconds at 40° C., Water 3.14 × 10^6): 2.80 × 10^4
Average log reduction (E. coli O157:H7; 90 seconds at 40° C.): 2.05
% bacteria killed (Non-selective mix): 100.000%
Average (bacterial load) (Non-selective mix; 30 seconds at 4° C., Water 1.00 × 10^7): 0.00
% bacteria killed (Non-selective mix; 30 seconds at 4° C., listed as 10 ppm chlorine dioxide): 100%
% bacteria killed (Non-selective mix; 30 seconds at 4° C., listed as Chlorine dioxide (10 ppm)): 100%
Average log reduction (Non-selective mix; 30 seconds at 4° C.): *
Average (bacterial load) (Non-selective mix; 30 seconds at 15° C., Water 8.46 × 10^6): 0.00
% bacteria killed (Non-selective mix; 30 seconds at 15° C., listed as 10 ppm chlorine dioxide): 100%
% bacteria killed (Non-selective mix; 30 seconds at 15° C., listed as Chlorine dioxide (10 ppm)): 100%
Average log reduction (Non-selective mix; 30 seconds at 15° C.): *
Average (bacterial load) (Non-selective mix; 30 seconds at 40° C., Water 8.30 × 10^6): 1.00 × 10^2
% bacteria killed (Non-selective mix; 30 seconds at 40° C., listed as 10 ppm chlorine dioxide): 99.9988%
% bacteria killed (Non-selective mix; 30 seconds at 40° C., listed as Chlorine dioxide (10 ppm)): 99.9988%
Average log reduction (Non-selective mix; 30 seconds at 40° C.): 4.92
Average (bacterial load) (Non-selective mix; 90 seconds at 4° C., Water 6.22 × 10^6): 2.00 × 10^0
% bacteria killed (Non-selective mix; 90 seconds at 4° C., listed as 10 ppm chlorine dioxide): 100%
% bacteria killed (Non-selective mix; 90 seconds at 4° C., listed as Chlorine dioxide (10 ppm)): 100%
Average log reduction (Non-selective mix; 90 seconds at 4° C.): 6.49
Average (bacterial load) (Non-selective mix; 90 seconds at 15° C., Water 1.21 × 10^7): 2.00 × 10^1
% bacteria killed (Non-selective mix; 90 seconds at 15° C., listed as 10 ppm chlorine dioxide): 99.9998%
% bacteria killed (Non-selective mix; 90 seconds at 15° C., listed as Chlorine dioxide (10 ppm)): 99.9998%
Average log reduction (Non-selective mix; 90 seconds at 15° C.): 5.78
Average (bacterial load) (Non-selective mix; 90 seconds at 40° C., Water 9.76 × 10^6): 7.20 × 10^4
% bacteria killed (Non-selective mix; 90 seconds at 40° C., listed as 10 ppm chlorine dioxide): 99.2623%
% bacteria killed (Non-selective mix; 90 seconds at 40° C., listed as Chlorine dioxide (10 ppm)): 99.2623%
Average log reduction (Non-selective mix; 90 seconds at 40° C.): 2.13

CC(=O)OO [PAA, peroxyacetic acid]
log unit reduction in microbial load after each individual step [5]: 2.4 log unit

OO [Treatment H2O2, hydrogen peroxide]
APC (CFU/g) [6]: 5,800 CFU/g
